Assay results taken from ChEMBL document CHEMBL1135718, “CoMFA and CoMSIA 3D QSAR and docking studies on conformationally-restrained cinnamoyl HIV-1 integrase inhibitors: exploration of a binding mode at the active site” (J Med Chem, 2002).

What follows are molecules tested against Human immunodeficiency virus type 1 integrase (Human immunodeficiency virus 1, UniProt Q7ZJM1) (assay: Inhibitory activity against HIV-1 Integrase (HIV-1-IN)).
Chain of Human immunodeficiency virus type 1 integrase (Q7ZJM1 whole entry): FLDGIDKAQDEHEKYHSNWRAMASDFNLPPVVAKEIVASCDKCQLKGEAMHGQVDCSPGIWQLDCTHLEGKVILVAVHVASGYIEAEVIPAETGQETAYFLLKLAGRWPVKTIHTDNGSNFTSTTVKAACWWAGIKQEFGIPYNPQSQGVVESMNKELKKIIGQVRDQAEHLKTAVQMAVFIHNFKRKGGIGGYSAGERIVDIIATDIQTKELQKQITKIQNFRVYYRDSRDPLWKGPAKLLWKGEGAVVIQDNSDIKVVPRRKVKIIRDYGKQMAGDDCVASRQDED

Row | SMILES | IC50 [µM]
1 | CCOC(=O)/C=C/c1ccc(O)c(O)c1 [ETHYL CAFFEATE] | 100
2 | O=C(NCc1ccccc1)c1cc2cc(O)c(O)cc2cn1 | 100
3 | COOC(=O)c1ccc2c(O)c(O)ccc2c1 | 7.94
4 | COOC(=O)c1cc2ccc(O)c(O)c2cn1 | 14.1
5 | O=C(/C=C/c1ccc(O)cc1)/C=C/c1ccc(O)cc1 | 100
6 | COc1cc(/C=C2\CCC/C(=C\c3ccc(O)c(OC)c3)C2=O)ccc1O [CYCLOVALONE] | 100
7 | O=C(/C=C/c1ccc(F)c(F)c1)OCCc1ccccc1 | 100
8 | COOC(=O)c1cc2cc(O)c(O)cc2cn1 | 100

Results, then the molecule that gave them:

Row | IC50 [µM] | SMILES
9 | 100 | O=C(/C=C/c1cc(O)ccc1O)OCCc1ccccc1
10 | 100 | O=C(/C=C/c1ccc(O)cc1)c1ccc(O)cc1O [ISOLIQUIRITIGENIN]
11 | 100 | O=C(/C=C/c1ccc(O)cc1)CC(=O)/C=C/c1ccc(O)cc1 [BISDEMETHOXYCURCUMIN]
12 | 100 | COC(=O)/C=C/c1ccc(O)c(O)c1 [METHYLCAFFEATE]
13 | 100 | COc1ccc(/C=C/C(=O)/C=C(O)/C=C/c2ccc(OC)c(OC)c2)cc1OC
14 | 100 | O=C(/C=C/c1ccc(O)c(O)c1)CCc1ccccc1
15 | 100 | O=C(/C=C(O)/C=C/c1ccccc1)/C=C/c1ccccc1
16 | 100 | COc1ccc(/C=C/C(=O)OCCc2ccccc2)cc1OC
17 | 100 | COc1cc(/C=C/C(=O)OCCc2ccccc2)ccc1O
18 | 100 | COc1ccc(/C=C/C(=O)/C=C/c2ccc(OC)c(OC)c2)cc1OC
